We go through eleven compounds from publication PMC3731256, “Optimization of Substituted 6-Salicyl-4-Anilinoquinazoline Derivatives as Dual EGFR/HER2 Tyrosine Kinase Inhibitors” (PLoS ONE, 2013).

Where two headings read alike, the source gives them in different places.

One data set relates to MCF-7 cells. Briefly: Antiproliferation WST-1 assay, MCF-7. Type of data set: cell-based, human. How it is done: (§1) WST-1 is better than MTT for analyzing cell proliferation, because it can be reduced to soluble formazan by dehydrogenase in mitochondria and has little toxicity to cells. Cell proliferation was determined using WST-1 dye (Beyotime Inst Biotech, China) according to manufacture’s instructions. Brieﬂy, 5 × 10^3 cells per well were seeded in a 96-well plate, grown at 37 ℃ for 24 h, and then placed in serum-starved conditions for a further 6 h. Subsequently, cells were treated with compounds (Table 1) at increasing concentrations in the presence of 10% FBS for 24 or 48h. After 10 µL WST-1 dye was added to each well, cells were incubated at 37 ℃ for 2 h and the absorbance was ﬁnally determined at 450 nm using a microplate reader.
(In general: Tetrazolium dyes change colour on reduction, which living cells bring about.)

The test system of the next data set is A549 cells. Briefly: Antiproliferation WST-1 assay, A549. It counts as cell-based, human. As for the experimental part:
as §1

For the next data set, the system named is A431 cells. Briefly: Antiproliferation WST-1 assay, A431. Type of data set: cell-based, human. The following applies: A431, overexpression of EGFR, read-out: Cellular IC50, A431. As for the experimental part: as §1
The target in another data set is T1, human EGFR (Homo sapiens, UniProt P00533).
T1 construct: the cytoplasmic domain (amino acids 669-1210) of human EGFR; FLAG (DYKDDDD) (N); made in house
T1 sequence (P00533 669-1210): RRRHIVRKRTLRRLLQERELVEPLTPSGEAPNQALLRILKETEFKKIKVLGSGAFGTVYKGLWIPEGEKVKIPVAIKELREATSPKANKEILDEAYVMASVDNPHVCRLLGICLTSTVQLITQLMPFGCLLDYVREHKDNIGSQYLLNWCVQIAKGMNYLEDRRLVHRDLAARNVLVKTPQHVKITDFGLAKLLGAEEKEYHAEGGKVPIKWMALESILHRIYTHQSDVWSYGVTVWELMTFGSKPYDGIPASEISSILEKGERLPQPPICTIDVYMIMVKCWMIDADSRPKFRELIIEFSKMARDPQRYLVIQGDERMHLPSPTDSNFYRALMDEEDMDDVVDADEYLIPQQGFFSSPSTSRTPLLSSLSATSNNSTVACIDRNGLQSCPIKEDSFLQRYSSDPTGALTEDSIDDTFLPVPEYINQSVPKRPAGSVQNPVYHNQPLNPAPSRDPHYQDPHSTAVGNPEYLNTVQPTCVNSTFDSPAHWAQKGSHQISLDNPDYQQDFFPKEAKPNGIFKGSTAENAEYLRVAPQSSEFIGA
In words: EGFR kinase assay ([γ-32P] ATP, poly-Glu-Tyr). It counts as biochemical. Conditions: phosphorylation of poly-Glu-Tyr copolymer; mean, >1 determination; read-out: Enzyme activity IC50 against EGFR kinase. How it is done: (§2) The expressed HER2 kinase and EGFR kinase were purified by anti-FLAG M2 affinity gel (Sigma-Aldrich, USA). The HER2 and EGFR kinase assays were performed using radiolabeled [γ-^32P] ATP (GEHealthcare, USA) in 96-well plates. The kinase reactions were performed in 50 mmol/L Tris-HCl, pH7.5, 5 mmol/L MnCl2, 0.01% Tween-20 and 2 mmol/L DTT containing 0.9 μCi of [γ-^32P] ATP per reaction, 50 μmol/L ATP, 5 μg/mL poly-Glu-Tyr (4:1) and 0.25 μg/mL of purified Her2 or EGFR cytoplasmic domain in a total volume of 50 μL. […] Kinase reactions were initiated by adding ATP. After the kinase reaction incubated for 10 minutes at room temperature, reactions were terminated by the addition of 10% (final concentration) trichloroacetic acid. The [γ-^32P]-phosphorylated proteins were filtered in a harvest plate (Millipore, USA) with a cell harvester (PerkinElmer, USA) and washed free of [γ-^32P] ATP with 3% phosphoric acid. The plates were dried, followed by the addition of 25 μL of MicroScintO (PerkinElmer, USA). Radioactivity was counted by a Topcount scintillation counter (PerkinElmer, USA).

Another data set concerns the target T2, human HER2 (Homo sapiens, UniProt P04626).
T2 construct: The cytoplasmic domain (amino acids 676-1255) of human HER2; FLAG (DYKDDDD) (N); made in house
In words: HER2 kinase assay ([γ-32P] ATP, poly-Glu-Tyr). Type of data set: biochemical. Conditions: phosphorylation of poly-Glu-Tyr copolymer; mean, >1 determination; read-out: Enzyme activity IC50 against HER2 kinase. As for the experimental part: as §2

The test system of the next data set is H1781 cells. Briefly: Antiproliferation WST-1 assay, H1781. Type of data set: cell-based. Conditions: NCI-H1781, NSCLC, HER-2 G776ins V_G/C, lapatinib-resistant. How it is done:
as §1

The next data set relates to MDA-MB-453 cells. Briefly: Antiproliferation WST-1 assay, MDA-MB-453. Type of data set: cell-based. Conditions: Homo sapiens, breast cancer, HER-2++, PTEN deficiency. As for the experimental part:
as §1

In another data set the test system is H1975 cells. In words: Antiproliferation WST-1 assay, H1975. It counts as cell-based. The following applies: Homo sapiens, NCI-H1975, NSCLC, EGFR L858R/T790M. As for the experimental part: as §1
Setting [1] is: Homo sapiens, MCF7, WST-1 assay, MCF-7 breast cancer, Her2/neu overexpression, read-out: Cellular IC50, MCF-7.
[2] abbreviates: WST-1 assay, A549 carcinomic human alveolar basal epithelial cell, read-out: Cellular IC50, A549.
Where [3] appears, read: Homo sapiens, A-431, WST-1 assay.
Where [4] appears, read: WST-1 assay, MCF-7 breast cancer, Her2/neu overexpression, read-out: Cellular IC50, MCF-7.

T2 sequence (P04626 676-1255): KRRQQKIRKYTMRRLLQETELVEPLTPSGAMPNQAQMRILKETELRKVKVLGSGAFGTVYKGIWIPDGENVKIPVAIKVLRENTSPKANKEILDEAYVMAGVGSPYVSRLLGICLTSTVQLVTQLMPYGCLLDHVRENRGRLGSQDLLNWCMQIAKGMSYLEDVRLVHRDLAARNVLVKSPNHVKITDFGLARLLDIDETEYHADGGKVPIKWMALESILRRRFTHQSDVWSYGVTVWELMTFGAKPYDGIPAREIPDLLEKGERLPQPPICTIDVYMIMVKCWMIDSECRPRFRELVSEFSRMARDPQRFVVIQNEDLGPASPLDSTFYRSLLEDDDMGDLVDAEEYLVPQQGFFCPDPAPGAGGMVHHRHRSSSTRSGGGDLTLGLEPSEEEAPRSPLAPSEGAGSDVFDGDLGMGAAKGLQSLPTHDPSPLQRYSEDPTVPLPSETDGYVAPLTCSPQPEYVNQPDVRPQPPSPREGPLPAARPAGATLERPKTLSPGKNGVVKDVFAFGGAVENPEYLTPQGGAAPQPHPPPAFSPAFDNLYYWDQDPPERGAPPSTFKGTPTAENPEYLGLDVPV

Turning to `Oc1ccc(Br)cc1CNc1ccc2ncnc(Nc3cccc(Br)c3)c2c1` [Compound 11, 4-bromo-2-((4-(3-bromophenylamino)quinazolin-6-ylamino)methyl)phenol], the melting point (as a rule, the temperature, or range, at which the solid turns liquid) was in the range of 189 to 191 °C. Also, the IC50 – broadly, the concentration that gives 50% inhibition – in the data set on MCF-7 cells (setting [1]) came to 900 ± 18 nM. Further, in the data set with A549 cells (setting [2]), the IC50 is 2130 ± 128 nM. In the data set on A431 cells (setting [3]), the IC50 is 870 ± 9 nM. For the same compound, at human EGFR, the IC50 came out at 570 ± 8 nM. In addition, the IC50 on human HER2 worked out at 1400 ± 3 nM.
In turn, `CCOc1ccccc1C(=O)Nc1ccc2ncnc(Nc3cccc(Cl)c3)c2c1` [Compound 26, N-(4-(3-chlorophenylamino)quinazolin-6-yl)-2-ethoxybenzamide] showed a melting point of 111 to 113 °C. Moreover, the IC50 in the data set on MCF-7 cells (setting [1]) was 820 ± 82 nM. Moreover, the IC50 in the data set with A549 cells (setting [2]) is 1580 ± 93 nM. Further, the IC50 in the data set on A431 cells (setting [3]) turned out to be 760 ± 2 nM. Further, the half-maximal inhibitory concentration (IC50) on human EGFR was determined as 6300 ± 76 nM. Besides, the concentration for half-maximal inhibition (IC50) at human HER2 was determined as 4100 ± 91 nM.
Consider `O=C(Nc1ccc2ncnc(Nc3cccc(Cl)c3)c2c1)c1ccc(Cl)cc1O` [Compound 23, 4-chloro-N-(4-(3-chlorophenylamino)quinazolin-6-yl)-2-hydroxybenzamide], for which the melting point was 211 to 213 °C. For the same compound, the half-inhibitory concentration (IC50) in the data set with MCF-7 cells (setting [1]) came out at 550 ± 7 nM. Also, the IC50 in the data set with A549 cells (setting [2]) is 1360 ± 16 nM. In addition, in the data set on A431 cells (setting [3]), the IC50 came out at 840 ± 9 nM. Moreover, the IC50 on human EGFR came to 320 ± 8 nM. In addition, the IC50 on human HER2 was 1200 ± 22 nM.
Turning to `CS(=O)(=O)CCNCc1ccc(-c2ccc3ncnc(Nc4ccc(OCc5cccc(F)c5)c(Cl)c4)c3c2)o1` [Lapatinib, reference compound], the IC50 with MCF-7 cells (Homo sapiens, MCF7, read-out: Cellular IC50, MCF-7) is 210 ± 3 nM; in the data set with H1781 cells, 2100 ± 34 nM; in the data set with A549 cells (Homo sapiens, A549, read-out: Cellular IC50, A549) it was 1120 ± 22 nM; in the data set with MDA-MB-453 cells, 720 ± 23 nM; in the data set with H1975 cells, 3900 ± 419 nM.
In the case of `O=C(Nc1ccc2ncnc(Nc3cccc(Br)c3)c2c1)c1ccc(Cl)cc1O` [Compound 17, N-(4-(3-bromophenylamino)quinazolin-6-yl)-4-chloro-2-hydroxybenzamide], the melting point is 274 to 277 °C. In addition, the IC50 with MCF-7 cells (setting [1]) came out at 1210 ± 29 nM. The 50% inhibitory concentration (IC50) in the data set with A549 cells (setting [2]) is 1590 ± 35 nM. Moreover, the IC50 in the data set on A431 cells (setting [3]) amounted to 1460 ± 27 nM. In addition, the IC50 on human EGFR is 1200 ± 71 nM. Moreover, on human HER2, the IC50 was determined as 2800 ± 3.1 nM.
Turning to `O=C(Nc1ccc2ncnc(Nc3cccc(Cl)c3)c2c1)c1ccccc1O` [Compound 22, N-(4-(3-chlorophenylamino)quinazolin-6-yl)-2-hydroxybenzamide], the melting point lay within 117 to 120 °C. The IC50 in the data set on MCF-7 cells (setting [1]) amounted to 610 ± 5 nM. Besides, the IC50 in the data set on A549 cells (setting [2]) was 1390 ± 54 nM. The IC50 in the data set on A431 cells (setting [3]) is 740 ± 6 nM. The IC50 at human EGFR came out at 160 ± 7 nM. The 50% inhibitory concentration (IC50) at human HER2 was found to be 840 ± 3 nM.
In turn, `Cc1ccc(C(=O)Nc2ccc3ncnc(Nc4cccc(Cl)c4)c3c2)c(O)c1` [Compound 24, N-(4-(3-chlorophenylamino)quinazolin-6-yl)-2-hydroxy-4-methylbenzamide] registered a melting point of 257 to 258 °C. In addition, in the data set with MCF-7 cells (setting [1]), the IC50 was 470 ± 4 nM. Besides, the IC50 in the data set on A549 cells (setting [2]) amounted to 1300 ± 12 nM. Moreover, in the data set with A431 cells (setting [3]), the IC50 came out at 630 ± 4 nM. Moreover, the IC50 at human EGFR came out at 490 ± 3 nM. For the same compound, the 50% inhibitory concentration (IC50) at human HER2 turned out to be 2000 ± 182 nM.
Regarding `O=C(Nc1ccc2ncnc(Nc3cccc(Cl)c3)c2c1)c1cc(Br)ccc1O` [Compound 25, 5-bromo-N-(4-(3-chlorophenylamino)quinazolin-6-yl)-2-hydroxybenzamide], the melting point fell in the range of 299 to 301 °C. Moreover, in the data set on MCF-7 cells (setting [1]), the IC50 turned out to be 740 ± 13 nM. The IC50 in the data set with A549 cells (setting [2]) came out at 1690 ± 78 nM. Moreover, in the data set on A431 cells (setting [3]), the IC50 turned out to be 880 ± 11 nM. Further, at human EGFR, the IC50 worked out at 580 ± 7 nM. Further, the IC50 at human HER2 came to 2600 ± 133 nM.
The compound `Oc1ccc(Cl)cc1CNc1ccc2ncnc(Nc3cccc(Cl)c3)c2c1` [Compound 13, 4-chloro-2-((4-(3-chlorophenylamino)quinazolin-6-ylamino)methyl)phenol] registered a melting point of 238 to 240 °C. The half-inhibitory concentration (IC50) in the data set on MCF-7 cells (setting [1]) was under 1000 nM. For the same compound, the IC50 in the data set on MCF-7 cells (setting [4]) turned out to be 920 ± 12 nM. In the data set on A549 cells (setting [2]), the IC50 stood at 2170 ± 49 nM. For the same compound, in the data set on A431 cells (setting [3]), the IC50 is under 1000 nM. Besides, in the data set with A431 cells (WST-1 assay), the IC50 came out at 1260 ± 51 nM. Further, the IC50 at human EGFR came to 830 ± 65 nM. Also, the IC50 on human HER2 came to 2300 ± 34 nM.
`O=C(Nc1ccc2ncnc(Nc3cccc(Br)c3)c2c1)c1cc(Cl)ccc1O` [Compound 19, N-(4-(3-bromophenylamino)quinazolin-6-yl)-5-chloro-2-hydroxybenzamide] displayed a melting point of 304 to 306 °C. In addition, the IC50 in the data set on MCF-7 cells (setting [1]) stood at 1120 ± 87 nM. The IC50 with A549 cells (setting [2]) was determined as 1770 ± 56 nM. Further, in the data set on A431 cells (setting [3]), the concentration for half-maximal inhibition (IC50) turned out to be 1280 ± 13 nM. In addition, at human EGFR, the IC50 came to 1070 ± 18 nM. Further, the IC50 at human HER2 was 1800 ± 9 nM.
Take `Oc1c(Br)cc(Br)cc1CNc1ccc2ncnc(Nc3cccc(Br)c3)c2c1` [Compound 12, 2,4-dibromo-6-((4-(3-bromophenylamino)quinazolin-6-ylamino)methyl)phenol]: the melting point fell in the range of 169 to 171 °C. For the same compound, the 50% inhibitory concentration (IC50) in the data set with MCF-7 cells (setting [1]) is under 1000 nM. Besides, the IC50 in the data set on MCF-7 cells (setting [4]) turned out to be 1070 ± 16 nM. Besides, the IC50 in the data set on A549 cells (setting [2]) came out at 1820 ± 62 nM. For the same compound, the IC50 in the data set with A431 cells (setting [3]) was under 1000 nM. For the same compound, the IC50 in the data set with A431 cells (WST-1 assay) was found to be 1140 ± 36 nM. Further, the IC50 on human EGFR amounted to 950 ± 72 nM. In addition, at human HER2, the IC50 is 980 ± 2 nM.
